# Values of other authors, collected in PubChem BioAssay AID1259409 (Chemical Carcinogenesis Research Information System (CCRIS), 2018).
# Test system: rodent chemically induced tumor inhibition, incidence and multiplicity
# Assay: CCRIS tumor inhibitor studies
# Excerpt: The CCRIS database contains chemical records with carcinogenicity, mutagenicity, tumor promotion, and tumor inhibition test results. It was developed by the National Cancer Institute (NCI). Data are derived from studies cited in primary journals, current awareness tools, NCI reports, and other sources. Test results have been reviewed by experts in carcinogenesis and mutagenesis.
# CCRIS provides historical information from the years 1985 - 2011. It is no longer updated.
# This is an archive assay for CCRIS tumor inhibitor studies.
structure (smiles),measurement,setting,value
COc1cc(/C=C/C(=O)O)ccc1O,"tumour outcome (control, treated, inhibition, significance)","Carcinogen: AZOXYMETHANE [25843-45-2], Dose [Inhibitor]: 0, 500 PPM IN DIET FOR 23 WK BEGINNING POST LAST CARCINOGEN DOSE (STUDY DURATION: 35 WK), Route [Inhibitor]: ORAL, Species: RAT, Strain/Sex: F344/MALE, Target Tissue: Type of Lesion: LARGE INTESTINE: TUMOR, Dose [Carcinogen]: 15 MG/KG 3X/WK FOR 12 WK (STUDY DURATION: 35 WK), Promoter: NONE","11%, 32%, -190%, not significant"
same,"tumour outcome (control, treated, inhibition, significance)","Carcinogen: AZOXYMETHANE [25843-45-2], Dose [Inhibitor]: 0, 500 PPM IN DIET FOR 23 WK BEGINNING POST LAST CARCINOGEN DOSE (STUDY DURATION: 35 WK), Route [Inhibitor]: ORAL, Species: RAT, Strain/Sex: F344/MALE, Target Tissue: Type of Lesion: SMALL INTESTINE: TUMOR, Dose [Carcinogen]: 15 MG/KG 3X/WK FOR 12 WK (STUDY DURATION: 35 WK), Promoter: NONE","18%, 27%, -50%, not significant"
same,"tumour outcome (control, treated, inhibition, significance)","Carcinogen: AZOXYMETHANE [25843-45-2], Dose [Inhibitor]: 250 PPM IN DIET FOR 4 WK BEGINNING 1 WK PRIOR TO FIRST CARCINOGEN DOSE (STUDY DURATION: 35 WK), Route [Inhibitor]: ORAL, Species: RAT, Strain/Sex: F344/MALE, Target Tissue: Type of Lesion: LARGE INTESTINE: TUMOR, Dose [Carcinogen]: 15 MG/KG 1X/WK FOR 3 WK (STUDY DURATION: 35 WK), Promoter: NONE","59%, 32%, 46%, not significant"
same,"tumour outcome (control, treated, inhibition, significance)","Carcinogen: AZOXYMETHANE [25843-45-2], Dose [Inhibitor]: 250 PPM IN DIET FOR 4 WK BEGINNING 1 WK PRIOR TO FIRST CARCINOGEN DOSE (STUDY DURATION: 35 WK), Route [Inhibitor]: ORAL, Species: RAT, Strain/Sex: F344/MALE, Target Tissue: Type of Lesion: SMALL INTESTINE: TUMOR, Dose [Carcinogen]: 15 MG/KG 1X/WK FOR 3 WK (STUDY DURATION: 35 WK), Promoter: NONE","23%, 5%, 78%, not significant"
same,"tumour outcome (control, treated, inhibition, significance)","Carcinogen: AZOXYMETHANE [25843-45-2], Dose [Inhibitor]: 250 PPM IN DIET FOR 31 WK BEGINNING 1 WK POST LAST CARCINOGEN DOSE (STUDY DURATION: 35 WK), Route [Inhibitor]: ORAL, Species: RAT, Strain/Sex: F344/MALE, Target Tissue: Type of Lesion: LARGE INTESTINE: TUMOR, Dose [Carcinogen]: 15 MG/KG 1X/WK FOR 3 WK (STUDY DURATION: 35 WK), Promoter: NONE","59%, 41%, 31%, not significant"
same,"tumour outcome (control, treated, inhibition, significance)","Carcinogen: AZOXYMETHANE [25843-45-2], Dose [Inhibitor]: 250 PPM IN DIET FOR 31 WK BEGINNING 1 WK POST LAST CARCINOGEN DOSE (STUDY DURATION: 35 WK), Route [Inhibitor]: ORAL, Species: RAT, Strain/Sex: F344/MALE, Target Tissue: Type of Lesion: SMALL INTESTINE: TUMOR, Dose [Carcinogen]: 15 MG/KG 1X/WK FOR 3 WK (STUDY DURATION: 35 WK), Promoter: NONE","23%, 23%, 0%, not significant"
same,"tumour outcome (control, treated, inhibition, significance)","Carcinogen: AZOXYMETHANE [25843-45-2], Dose [Inhibitor]: 500 PPM IN DIET FOR 4 WK BEGINNING 1 WK PRIOR TO FIRST CARCINOGEN DOSE (STUDY DURATION: 35 WK), Route [Inhibitor]: ORAL, Species: RAT, Strain/Sex: F344/MALE, Target Tissue: Type of Lesion: LARGE INTESTINE: TUMOR, Dose [Carcinogen]: 15 MG/KG 1X/WK FOR 3 WK (STUDY DURATION: 35 WK), Promoter: NONE","59%, 32%, 46%, not significant"
same,"tumour outcome (control, treated, inhibition, significance)","Carcinogen: AZOXYMETHANE [25843-45-2], Dose [Inhibitor]: 500 PPM IN DIET FOR 4 WK BEGINNING 1 WK PRIOR TO FIRST CARCINOGEN DOSE (STUDY DURATION: 35 WK), Route [Inhibitor]: ORAL, Species: RAT, Strain/Sex: F344/MALE, Target Tissue: Type of Lesion: SMALL INTESTINE: TUMOR, Dose [Carcinogen]: 15 MG/KG 1X/WK FOR 3 WK (STUDY DURATION: 35 WK), Promoter: NONE","23%, 5%, 78%, not significant"
same,"tumour outcome (control, treated, inhibition, significance)","Carcinogen: AZOXYMETHANE [25843-45-2], Dose [Inhibitor]: 500 PPM IN DIET FOR 31 WK BEGINNING 1 WK POST LAST CARCINOGEN DOSE (STUDY DURATION: 35 WK), Route [Inhibitor]: ORAL, Species: RAT, Strain/Sex: F344/MALE, Target Tissue: Type of Lesion: LARGE INTESTINE: TUMOR, Dose [Carcinogen]: 15 MG/KG 1X/WK FOR 3 WK (STUDY DURATION: 35 WK), Promoter: NONE","59%, 36%, 39%, not significant"
same,"tumour outcome (control, treated, inhibition, significance)","Carcinogen: AZOXYMETHANE [25843-45-2], Dose [Inhibitor]: 500 PPM IN DIET FOR 31 WK BEGINNING 1 WK POST LAST CARCINOGEN DOSE (STUDY DURATION: 35 WK), Route [Inhibitor]: ORAL, Species: RAT, Strain/Sex: F344/MALE, Target Tissue: Type of Lesion: SMALL INTESTINE: TUMOR, Dose [Carcinogen]: 15 MG/KG 1X/WK FOR 3 WK (STUDY DURATION: 35 WK), Promoter: NONE","23%, 27%, -17%, not significant"
same,"tumour outcome (control, treated, inhibition, significance)","Carcinogen: BENZO[A]PYRENE, 50-32-8, Dose [Inhibitor]: 0.06 MMOL/G OF DIET DAILY STARTING 8 D BEFORE AND CONTINUING THROUGH 3 D AFTER CARCINOGEN TREATMENT FOLLOWED BY OBSERVAT, Route [Inhibitor]: ORAL, Species: MOUSE, Strain/Sex: ICR/FEMALE, Target Tissue: Type of Lesion: FORESTOMACH: NEOPLASM, Dose [Carcinogen]: 1 MG IN 0.2 ML CORN OIL 2/WK FOR 4 WK, Promoter: NONE USED","100%, 90%, 10%, not significant"
same,"tumour outcome (control, treated, inhibition, significance)","Carcinogen: BENZO[A]PYRENE, 50-32-8, Dose [Inhibitor]: 100 MG/KG ADMINISTERED 1 HR BEFORE AND 6, 24, 48 AND 72 HR AFTER BENZO[A]PYRENE TREATMENT (STUDY DURATION: 6 MO), Route [Inhibitor]: INTRAPERITONEAL, Species: MOUSE, Strain/Sex: STRAIN-A/MALE, Target Tissue: Type of Lesion: LUNG: ADENOMA, Dose [Carcinogen]: 100 MG/KG ONCE, Promoter: NONE USED","18/18 (100%), 18/18 (100%), 0%, not significant"
same,"tumour outcome (control, treated, inhibition, significance)","Carcinogen: BENZO[A]PYRENE, 50-32-8, Dose [Inhibitor]: 100 MG/KG ADMINISTERED 1 HR BEFORE AND 6, 24, 48 AND 72 HR AFTER CARCINOGEN TREATMENT FOLLOWED BY 6 MO OBSERVATION PERIO, Route [Inhibitor]: INTRAPERITONEAL, Species: MOUSE, Strain/Sex: STRAIN A/MALE, Target Tissue: Type of Lesion: LUNG: ADENOMA, Dose [Carcinogen]: 100 MG/KG ONCE, Promoter: NONE USED","18/18 (100%), 18/18 (100%), 0%, not significant"
same,"tumour outcome (control, treated, inhibition, significance)","Carcinogen: N-NITROQUINOLINE-1-OXIDE, 56-57-5, Dose [Inhibitor]: 0, 500 PPM IN DIET FOR 7 WK BEGINNING 1 WK PRIOR TO START OF CARCINOGEN TREATMENT (STUDY DURATION: 32 WK), Route [Inhibitor]: ORAL, Species: RAT, Strain/Sex: F344\MALE, Target Tissue: Type of Lesion: TONGUE: CARCINOMA, Dose [Carcinogen]: 20 PPM IN DRINKING WATER FOR 5 WK, Promoter: NONE USED","9/15 (60%), 1/14 (7%), 88%, p=0.0035"
